Reference: paper PMC6912754, “Identification of A Novel Class of Benzofuran Oxoacetic Acid-Derived Ligands that Selectively Activate Cellular EPAC1” (Cells, 2019)

Molecular target: T1, EPAC2-CNBD (Homo sapiens, UniProt Q8WZA2)
T1 construct: gene RAPGEF4
Test: biochemical
Set-up: 8-NBD-cAMP competition binding to GST-CNBD, fluorescence intensity 480/535 nm, dose response
Conditions: 8-NBD-cAMP displacement, mean; read-out: Pharmacology assay data / EPAC2 pIC50 (mean) (converted)
Description: 8-(2-[7-nitro-4-benzofurazanyl] aminoethylthio) adenosine-3′,5′-cyclic monophosphate (8-NBD-cAMP) competition assays were performed with purified EPAC1-CNBD and EPAC2-CNBD GST-fusion proteins as previously described. Comparison of reference molecules, dose response curves (DRC) and pilot screens were done in black, low volume 384 assay plates (Greiner). Plates were incubated for 4 h before 8-NBD-cAMP fluorescence intensity at 480/535 nm (ex/em) was measured using the Envision multi-label plate reader (Perkin-Elmer; Waltham, MA, USA). EPAC1-CNBD (amino acids 169–318 of EPAC1) and EPAC2-CNBD (amino acids 304-453) cDNAs were previously sub-cloned into the multi-cloning site of the pGEX-6P-1 expression vector (GE Healthcare) by BC Bioscienes (Dundee, Scotland). Ral-GDS-RBD (amino acids 788-884) was cloned into pGEX-5X-1 as described. Recombinant EPAC1-CNBD, EPAC2-CNBD, EPAC1 (amino acids 149–881), Ral-GDS-RBD (amino acids 788-884), and Rap1B (amino acids 1–167) glutathione S-transferase (GST)-fusion proteins were then expressed and purified from BL-21 Escherichia coli, as previously described. Protein concentrations were determined by the bicinchoninic acid (BCA) assay or by Nanodrop 2000/2000c (Thermo Scientific). All recombinant proteins were determined to be pure by SDS-PAGE analysis. Proteins were stored in aliquots at −80 °C until required. Preliminary SAR on a benzofuran oxo-acetic acid series, based on SY000, was done using 8NBD-cAMP binding to EPAC1 and EPAC2 CNBDs, as summarized in the Supplementary Table, Supplementary Figures and Figure 4. […] Further alternatives to the R1 group (Figure S2), including reducing the linker length by a single [compound left out] […] In addition, N-methylation of the amide portion (ESC100960) also results in loss of activity. This could indicate a role for the NH as a hydrogen bond donor or that the substitution could adversely affect the conformation of the adjacent oxo-acetic acid group.

T1 sequence (Q8WZA2 whole entry): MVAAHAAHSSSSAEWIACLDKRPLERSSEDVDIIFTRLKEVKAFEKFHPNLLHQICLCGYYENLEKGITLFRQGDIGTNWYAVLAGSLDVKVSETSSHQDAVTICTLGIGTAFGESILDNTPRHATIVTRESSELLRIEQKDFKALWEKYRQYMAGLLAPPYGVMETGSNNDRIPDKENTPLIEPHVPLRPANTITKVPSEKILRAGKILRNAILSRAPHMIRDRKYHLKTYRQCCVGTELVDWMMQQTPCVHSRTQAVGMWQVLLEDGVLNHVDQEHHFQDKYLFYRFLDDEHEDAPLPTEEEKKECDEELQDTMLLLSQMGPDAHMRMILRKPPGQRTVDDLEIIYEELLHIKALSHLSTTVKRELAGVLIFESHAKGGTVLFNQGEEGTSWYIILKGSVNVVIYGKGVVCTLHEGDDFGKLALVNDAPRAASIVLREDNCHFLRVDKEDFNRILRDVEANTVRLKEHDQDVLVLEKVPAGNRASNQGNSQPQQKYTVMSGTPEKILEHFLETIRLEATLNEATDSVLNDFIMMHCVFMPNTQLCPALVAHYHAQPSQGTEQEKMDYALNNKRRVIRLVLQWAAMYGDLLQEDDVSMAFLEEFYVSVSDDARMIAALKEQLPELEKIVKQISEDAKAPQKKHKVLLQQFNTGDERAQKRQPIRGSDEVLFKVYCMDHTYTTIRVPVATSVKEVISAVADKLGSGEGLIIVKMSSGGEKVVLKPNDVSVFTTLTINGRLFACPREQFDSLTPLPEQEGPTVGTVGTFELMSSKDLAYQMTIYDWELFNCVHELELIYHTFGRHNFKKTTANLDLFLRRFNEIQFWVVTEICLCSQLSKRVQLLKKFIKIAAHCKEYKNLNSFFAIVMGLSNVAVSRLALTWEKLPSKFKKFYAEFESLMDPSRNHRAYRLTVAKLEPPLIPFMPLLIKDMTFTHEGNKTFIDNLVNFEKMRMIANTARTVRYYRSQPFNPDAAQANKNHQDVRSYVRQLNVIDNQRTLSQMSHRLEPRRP

Row | SMILES | IC50
1 | Cc1ccc(C(=O)c2oc3ccc(CNC(=O)C(=O)O)cc3c2C(C)C)cc1 [SY009] | 31.6 µM
2 | Cc1ccc(C(=O)c2oc3ccc(CNC(=O)C(=O)O)cc3c2C)cc1 [SY000] | 7.94 µM
3 | CCc1c(C(=O)c2ccc(C)cc2)oc2ccc(CNC(=O)C(=O)O)cc12 [SY007] | 5.01 µM
4 | Cc1c(C(=O)c2cccc(Br)c2)oc2ccc(CNC(=O)C(=O)O)cc12 [ESC1000906] | 7.94 µM
5 | Cc1ccc(C(=O)c2oc3ccc(CNC(=O)C(=O)O)cc3c2C(C)(C)C)cc1 [SY006] | 22.4 µM
